According to US20190144375A1, “NOVEL CARBOCYCLIC COMPOUNDS AS ROR GAMMA MODULATORS” (Glenmark Pharmaceuticals S.A., priority 2015, published 2019):

Target: T1, GST-tagged ROR gamma ligand binding domain (LBD) (Homo sapiens, UniProt P51449)
T1 construct: purchased Invitrogen
T1 sequence (P51449 269-508 limits assumed): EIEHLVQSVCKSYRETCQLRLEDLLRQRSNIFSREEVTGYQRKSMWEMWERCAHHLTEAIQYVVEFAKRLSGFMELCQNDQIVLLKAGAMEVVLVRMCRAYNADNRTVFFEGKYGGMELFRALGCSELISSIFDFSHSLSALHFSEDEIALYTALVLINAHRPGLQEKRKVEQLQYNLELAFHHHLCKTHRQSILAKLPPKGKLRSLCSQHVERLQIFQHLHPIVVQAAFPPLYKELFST
Assay: TR-FRET assay for ROR gamma (LanthaScreen, Fluorescein-D22 co-activator peptide recruitment)
Assay type: biochemical
Settings: for inhibition at 1 µM: 1 μM compound; for inhibition at 1 µM / inhibition at 10 µM: TR-FRET ratio 520/495; for inhibition at 10 µM: 10 μM compound; for IC50: dose response curve, class symbols
From the text: The compounds described herein were screened for ROR gamma modulator activity using the TR-FRET assay (LanthaScreen™ available from Invitrogen of Carlsbad, Calif.) as described in JBC 2011, 286, 26: 22707-10; and Drug Metabolism and Disposition 2009, 37, 10: 2069-78.
The assay is based on the principle that binding of the agonist to the ROR gamma causes a conformational change around helix 12 in the ligand binding domain, resulting in higher affinity for the co-activator peptide. ROR gamma being constitutively active, the Fluorescein-D22 co-activator peptide used in the assay is recruited in the absence of a ligand. Binding of the co-activator peptide, causes an increase in the TR-FRET signal while binding of an antagonist decreases the recruitment of the co-activator peptide, causing a decrease in the TR-FRET signal compared to control with no compound. The assay was performed using a two-step procedure, pre-incubation step with the compound followed by the detection step on addition of the anti-GST tagged terbium (Tb) and fluorescein tagged fluorophores as the acceptor.
Test compounds or reference compounds such as T0901317 (Calbiochem) were dissolved in dimethylsulfoxide (DMSO) to prepare 10.0 mM stock solutions and diluted to the desired concentration. The final concentration of DMSO in the reaction was 4% (v/v). The assay mixture was prepared by mixing 10 nM of the GST-tagged ROR gamma ligand binding domain (LBD) in the assay buffer containing 25 mM HEPES, 100 mM NaCl, 5 mM DTT and 0.01% BSA with or without the desired concentration of the compound. The reaction was incubated at 22° C. for 1 hour. The pre-incubation step was terminated by addition of the detection mixture containing 300 nM Fluorescein-D22 co-activator peptide and 10 nM lantha screen Tb-anti GST antibody into the reaction mixture. After shaking for 5 minutes the reaction was further incubated for 1 hour at room temperature and read […] on an Infinite F500 reader as per the kit instructions (Invitrogen). The inhibition of test compound was calculated based on the TR-FRET ratio of 520/495. The activity was calculated as a percent of control reaction. IC50 values were calculated from dose response curve by nonlinear regression analysis using GraphPad Prism software.
Percentage inhibition at concentrations of 1.0 μM and 10.0 μM are given in the table along with IC50 (nM) details for selected examples.

CN(C(=O)c1ccc(NC(=O)Cc2ccc(C(F)(F)CO)cc2)cc1)c1ccc(Cl)cc1 [Example 3, N-(4-chlorophenyl)-4-(2-(4-(1,1-difluoro-2-hydroxyethyl)phenyl)acetamido)-N-methylbenzamide]
inhibition at 1 µM: 75%
inhibition at 10 µM: 85.8%
IC50: > 100 nM

Cc1cc(N(C)C(=O)c2ccc(NC(=O)Cc3ccc(C(F)(F)C(C)O)cc3)cc2)c(F)cc1Cl (stereo not drawn) [Example 37]
inhibition at 1 µM: 93.9%
inhibition at 10 µM: 96.3%
IC50: < 50 nM

Cc1cccc(Cl)c1N(C)C(=O)c1ccc(NC(=O)Cc2ccc(C(F)(F)C(C)O)cc2)cc1 (stereo not drawn) [Example 31]
inhibition at 1 µM: 79.1%
inhibition at 10 µM: 86.6%
IC50: 50 to 100 nM
